Assay results taken from a melting point compilation (Tetko et al.; mined from patent text by program, amines drawn as free bases though some values may be those of a salt).
Residues, ends and D or L forms follow the SMILES beside them.

Row | melting point [°C] | Compound
1 | 234 to 236 | CSCCC(N)C(=O)NC(CCSC)C(=O)O (stereo not drawn) (H-Met-Met-OH; configuration not given here)
2 | > 300 | O=C(O)c1cn(C2CC2)c2nc(N3Cc4cccc(Cl)c4C3)c(F)cc2c1=O
3 | 128 to 130 | O=C(NC1CCN(C2CCCCC2)C1)c1cccc(Br)c1 (configuration not stated)
4 | 159 to 163 | COc1ccc(Cn2cnc3c(Cl)ncnc32)cc1OC
5 | 124 to 126 | Cc1cc2cc(O)ccc2[nH]1
6 | 219 to 221 | N#Cc1ccc2c(c1)S(=O)c1ccccc1CC2=O (configuration not stated)
7 | 95 to 96 | CCCCCCCCCCCCCCOc1ccc(C(=O)O)s1
8 | 139 to 145 | Cc1cc(Cl)c(C(=O)O)c(Cl)c1
9 | 161 to 163 | Cc1ccc(NC(=O)C(N)c2ccc3c(c2)C(C)(C)CCC3(C)C)cc1 (configuration not stated)
10 | 110 | Oc1cccc(-c2nc3ccccc3s2)c1
11 | 228 to 231 | COc1ccc(/C=C/c2nc3ncccc3c(=O)o2)cc1OC
12 | 62 to 64 | CCN[C@@H]1CN(C(=O)c2nn(C)c3ccccc23)C[C@@H]1C (relative stereo)
13 | 135 to 137 | COc1c(C)c2c(c(O)c1C/C=C(/Cl)CCC(=O)O)C(=O)OC2
14 | 108 to 110 | c1ccc2c(c1)NCc1cccn1-2
15 | 178 to 182 | O=C(O)c1ccccc1-c1nc(-c2cc(C(F)(F)F)cc(C(F)(F)F)c2)no1
16 | 65 to 67 | OCCc1c[nH]c2cc(Cl)c(Cl)cc12
17 | 138 to 140 | Cc1cccc2[nH]c(Cl)nc12
18 | 290 | Cc1c(Br)c(=O)n(C2CCCC2)c2nc(Nc3ccc(N4CCNCC4)nc3)ncc12
19 | 85 to 93 | Cc1ccc2c(Cl)cc(I)c(O)c2n1
20 | 159 to 160 | C=CCC(CC=C)C(=O)O[C@H]1C[C@H](O)C=C2C=C[C@H](C)[C@H](CC[C@@H]3C[C@@H](O)CC(=O)O3)[C@H]21
21 | 183 to 185 | COc1ccc(CNc2nccc(-c3c[nH]nc3-c3ccc(F)cc3)n2)cc1
22 | 103 to 107 | Cc1ccc(Sc2ncnc3c(C)csc23)cc1
23 | 195 to 198 | O=C1C=C(Nc2ccc(F)cc2)CCN1
24 | 53 to 55 | CCOC(=O)C=Cc1ccc(OC)c(OC)c1
25 | > 350 | Oc1cccc(-c2nc(Nc3ccc(Cl)cc3)c3ccccc3n2)n1

Row | melting point [°C] | Compound
26 | 185 to 187 | CCc1cccc(C)c1NC(=O)N=C1NCCN1
27 | 90 to 92 | Brc1ccc(-c2coc3ccc(-c4ccccc4)cc23)cc1
28 | 260 to 272 | CNc1cc(N)c(C(=O)O)cc1[N+](=O)[O-]
29 | 192 to 194 | CCCc1nc2c(C)ccc(OCc3ccccc3)c2[nH]1
30 | 82.5 to 83.5 | S=C(Cc1ccc(Cl)cc1)N1CCCCC1
31 | 253 | NC(=S)Nc1nncs1
32 | 164 to 165 | O=C(Cc1ccccc1Nc1c(Cl)cccc1Cl)NO
33 | 170 to 172 | CCn1c(COC(N)=O)nc(C2CC2)c1Sc1cc(C#N)cc(C#N)c1
34 | 113 to 114 | CC(=O)c1ccc(OCCCN2CCC(c3noc4cc(F)ccc34)CC2)cc1C
35 | 118 to 120 | CCOc1sc(C)nc1S(N)(=O)=O
36 | 139 to 142 | COc1ccc(C=O)cc1NC(=O)OCC1c2ccccc2-c2ccccc21
37 | 160 | Cc1ccccc1NC(=O)CN(C(=O)CN1C(=O)c2ccccc2C1=O)c1ccccc1
38 | 74 to 76 | CCOc1ccc(Br)c(O)c1C(=O)NCC1CCCN1CC (configuration not stated)
39 | 103 | CCS(=O)(=O)c1ccc(C(=O)O)c(Cl)c1CBr
40 | 117 to 119 | CC(C)CC(=O)OC(C)OC(=O)NC1(C(=O)O)CC1 (configuration not stated)
41 | 63 to 66 | CC(C)(C)CNc1nc(Cl)cc(Cl)n1
42 | < 30 | CCCCCCCCOCCCCC(=O)O
43 | 69 to 70 | COc1ccc(C(CCCCCCC(=O)O)=NOCc2ccc(OCc3nc(-c4ccccc4)oc3C)cc2)cc1
44 | 110 to 113 | Cc1c(C(=O)NCc2ccc3c(Br)c(OC(Cc4ccccc4)C(=O)O)ccc3c2)oc2ccccc12 (configuration not stated)
45 | 159 to 160 | COc1nc(Cl)cnc1NS(=O)(=O)c1cccc(F)c1Cl
46 | 73 to 75 | CCOC(=O)C(C)C(=O)Nc1cccc(S)c1 (configuration not stated)
47 | 238 to 239 | CC1(C)CCc2c(N3CCOCC3)nc3sc4c(NCCc5ccccn5)ncnc4c3c2C1
48 | 184 | COc1ccc(CCNc2ncnc3occ(C)c23)cc1
49 | 156 to 159 | CN1CCC(=C2c3cc(C#N)ccc3C=Cn3cccc32)CC1
50 | 294 to 295 | Cn1nc(-c2cnc3[nH]cc(C(=O)NCC(C)(C)C)c3n2)c2ccc(F)cc21

Row | melting point [°C] | Compound
51 | 152 | CCOC(=O)C(=O)Nc1ccc(C#N)cc1[N+](=O)[O-]
52 | 185 | C=Cc1ccc(-n2cc(C)c(=O)[nH]c2=O)cc1
53 | 270 to 273 | COc1cc2c(=O)n(CC3CCCO3)c3c4cc5c(cc4ncc3c2cc1OC)OCO5 (configuration not stated)
54 | 47 to 48 | CC(=O)S[C@@H](CCc1ccccc1C)C(=O)O
55 | 284 to 286 | COc1ccccc1-c1c(N)c2ccc(Cl)cc2[nH]c1=O
56 | 193 to 194 | Cc1c(Cc2cccc(C(F)(F)F)c2)sc2c(-c3cc(C(N)=O)ccn3)cccc12
57 | 191 to 193 | CCOC1(OCC)CCc2c(ccc3c(=O)c4cc(C(=O)O)ccc4oc23)O1
58 | 101 to 120 | CN1CCCCC1CCc1ccccc1NC(=O)c1ccc(C(C)(C)C)cc1 (configuration not stated)
59 | 112 to 114 | CN(Cc1coc(C=Cc2ccc(C(F)(F)F)cc2)n1)c1ccc(CCCCn2ccnn2)cc1
60 | 70 | O=C(NCCc1ccccc1)[C@@H]1Cc2ccccc2N1S(=O)(=O)c1cccc(CNC(=O)C(F)(F)F)c1
61 | 153 to 154 | O=C(NNC(=O)C(F)(F)F)c1ccccc1
62 | 193 to 200 | O=C(O)c1ccc(F)cc1Sc1ccccc1
63 | 145 to 147 | N#Cc1c(Br)c(Br)n(Cc2ccccc2)c1-c1ccc(C(F)(F)F)cc1
64 | 289 to 291 | O=C(O)c1cccc(-n2cnc3cc(-c4ccccc4)ccc32)c1
65 | 211 | CN1CCCC(C(=O)OC2c3ccccc3C(=O)N2c2ccc3ccc(Cl)nc3n2)C1 (configuration not stated)
66 | 128 to 130 | COC(Cc1ccc(OCCc2nc(-c3ccccc3)oc2C)c2ccccc12)C(=O)O (configuration not stated)
67 | 89 | CCC(C)N(C)C(=O)c1cc(-c2ccccc2F)c2sccc2c1 (configuration not stated)
68 | 40 to 44 | N#Cc1ccc(OCCCCl)cc1
69 | 292 to 295 | N#Cc1c(-c2ccccc2)[nH]c(=O)c2cccnc12
70 | 55 to 60 | Nc1ccc(NC(=O)CCCCC2CCSS2)cc1 (configuration not stated)
71 | 118 | CCOC(=O)c1[nH]c2ccc(C)cc2c1C
72 | 160 to 170 | CCCCNc1cc(C)nc2cn[nH]c12
73 | 166 | O=C(O)CCCc1cc2cc(Cl)ccc2n1S(=O)(=O)c1ccc2ccccc2c1
74 | 88 | CN(C)CCCOc1ccc2ccc(N)nc2n1
75 | 152 to 153 | O=[N+]([O-])c1ccc(F)c(-c2ccc3ncccc3c2)c1F

Row | melting point [°C] | Compound
76 | 117 | CCN(CC)C(=O)C(C)Oc1nc(-c2ccccc2)cc2ccccc12 (configuration not stated)
77 | 151 to 152 | CCOc1nc2c(cnn2CC)nc1C(=O)Nc1nccs1
78 | 186 to 187 | C[C@@H](NC(=O)c1nsc(-c2ccc(Cl)cc2)n1)[C@](O)(Cn1cncn1)c1ccc(F)cc1F
79 | 239 | CCOCc1c2c(cc3c(=O)cc(C(=O)O)oc13)CCCC2
80 | 198 to 200 | COc1c(N2CCC(CN)C2)c(F)cc2c(=O)c(C(=O)O)cn(C3CC3)c12 (configuration not stated)
81 | 194 | O=C(NN1CCCCC1)c1nn(-c2ccc(Cl)cc2Cl)c(-c2ccc(Cl)cc2)c1COCCO
82 | 206 to 207 | COC(=O)COc1ccc2cc(CNC(=O)c3cnn(-c4ccc(Cl)cc4)c3C(F)(F)F)ccc2c1Br
83 | 146 to 148 | CCCCCCCCCCCCc1nnn(C(CCC)C(=O)Nc2c(OC)cc(OC)cc2OC)n1 (configuration not stated)
84 | > 220 | CC(C)NC(=S)NCc1c(Cl)ccc(C(=O)O)c1Cl
85 | 90.4 to 93.4 | CCCC(=O)OC(C)OC(=O)NC1(C(=O)O)CC1 (configuration not stated)
86 | 140 to 141 | Cc1ccc(CC(CC(=O)N2CC3CC=CCC3C2)C(=O)O)cc1 (configuration not stated)
87 | 155 to 156 | O=C(N[C@H]1CCCNC1=O)c1ccccc1C(F)(F)F
88 | 74 to 77 | COc1ccccc1-c1nn(C(C)C(=O)N(C)C)cc1Cl (configuration not stated)
89 | 203 to 205 | NC(=O)c1nnn(Cc2ccc(C(=O)c3ccc(Cl)cc3)c(Cl)c2)c1N
90 | 74 to 77 | CCOC(=O)COc1ccc2[nH]ccc2c1
91 | 170 to 172 | CC(=O)c1ccc(-c2ccc(OCc3nc4ccccc4s3)cc2)c(F)c1
92 | 119 | Cc1ccnc(N2C(=S)SCC2(C)O)c1 (configuration not stated)
93 | 105 to 108 | CCC(Sc1ccc(CCC(=O)O)c(C)c1)c1ccc2nc(-c3ccc(C(F)(F)F)cc3)sc2c1 (configuration not stated)
94 | 285 to 286 | Clc1cccc(Nc2ncnc3[nH]c(-c4ccccc4)cc23)c1
95 | 205 to 208 | CCC(C)c1ccc(NC(=O)c2sccc2S(=O)(=O)Nc2onc(C)c2Br)cc1 (configuration not stated)
96 | 160 to 161 | CCOC(=O)c1cc(-c2ccc(Cl)cc2)nc2ccnn12
97 | 207 to 208 | Cc1cc(=O)n2c3c(cc(C(OCc4ccccc4)(C(F)(F)F)C(F)(F)F)cc13)CC2
98 | 63 to 64 | C[C@@H]1Cc2cc([N+](=O)[O-])ccc2N1
99 | 65 to 67 | CCOc1cc(C(CC(=O)OC)N2C(=O)c3ccc(N)cc3C2=O)ccc1OC (configuration not stated)

Row | Compound | melting point [°C]
100 | CP(=O)(O)CC1CC(Cl)=NO1 (configuration not stated) | 116
101 | COC(=O)Nc1nc(C)c(-c2nc3ccccc3c(=O)n2-c2ccccc2)s1 | > 275
102 | O=C(NCCO[N+](=O)[O-])c1ccco1 | 88 to 89
103 | COC(=O)C1(CF)C=NN(C)N1 (configuration not stated) | 64 to 66
104 | CCCc1c(C(=O)C(C)C)c2ccc(C(N)=O)cc2n1Cc1ccc(Cl)cc1F | 200 to 202
105 | CCOC(=O)c1[nH]c2c(c1C)CC1CN(CC)CCC1(c1cccc(O)c1)C2 (configuration not stated) | 195 to 197
106 | CNC(=C[N+](=O)[O-])N(C)Cc1ccc(Cl)nc1 | 103 to 104
107 | Cc1nsc(OCC(Cl)(Cl)Cl)c1N | 58 to 60
